# Paper PMC10684410 (Clinical Pharmacokinetics, 2023)
# Tests used:
# [1] = Plasma paroxetine concentrations in the DDI study; format: in vivo, human (healthy subjects)
# [2] = cited from earlier work
# TAAR1 = settings: in vitro receptor binding studies; result in words; cited from earlier work
# [3] = 25 mg ulotaront + 20 mg QD paroxetine vs ulotaront alone, result in words
"AUC ([1]; human, plasma, oral, 20 mg)","Cmax ([1]; human, plasma, oral, 20 mg)","mean plasma trough concentration at steady-state ([1]; paroxetine 20 mg once daily from Day 5, Day 11)",increase of SEP-363854 AUC∞ by coadministration of paroxetine (25 mg ulotaront + 20 mg QD paroxetine vs ulotaront alone),effect of paroxetine on SEP-363854 Cmax [3],effect of paroxetine on SEP-363854 tmax [3],effect of paroxetine on SEP-363854 to ulotaront AUClast ratio [3],mean SEP-363854 to ulotaront AUClast ratio (with or without paroxetine coadministration),Structure (SMILES),metabolite abundance in humans ([2]; minor metabolite in humans),effective half-life for the metabolite ([2]; ref unpublished data),binding to TAAR1 (TAAR1)
647 ng·h/mL,37.3 ng/mL,19.3 ng/mL,–,–,–,–,–,Fc1ccc([C@@H]2CCNC[C@H]2COc2ccc3c(c2)OCO3)cc1 [Paroxetine],–,–,–
–,–,–,32%,no effect,no effect,no effect,about 0.02,NCC1OCCc2ccsc21 (centres unmarked) [SEP-363854],< 2 % of total,approximately 6 h,does bind to TAAR1
